Results on one molecule are retold here after patent US20240059740A1, “CYCLIC PEPTIDES AND USES THEREOF” (PRE[…] INC., priority 2020, published 2024).

Format in all cases: cell-based, human
One test deals with Snail-2 mRNA. Nature of the test: Real time RT-PCR, Snail-2 mRNA expression. From the text: The real-time reverse transcription polymerase chain reaction (RT-PCR) uses fluorescent reporter molecules to monitor the production of amplification products during each cycle of the PCR reaction. This combines the nucleic acid amplification and detection steps into one homogeneous assay and use of appropriate chemistries and data analysis eliminates the need for Southern blotting or DNA sequencing for amplicon identification. Its simplicity, specificity and sensitivity, together with its potential for high throughput and the ongoing introduction of new chemistries, more reliable instrumentation and improved protocols, has made real-time RT-PCR the benchmark technology for the detection and/or comparison of RNA levels.’
In order to detect and quantify the expression of specific genes at mRNA level, real-time reverse transcriptase polymerase chain reaction (Real time RT-PCR) was performed. Total RNA of samples was isolated and purified using the PureLink® RNA Mini Kit (Life technologies). The concentration of total RNA was detected by NanoDrop 2000 Spectrophotometer (Thermo Scientific). The total RNA (2000 ng) was reverse transcribed using the High-Capacity cDNA Reverse Transcription Kit (Applied Biosystems™).
The primers of target genes were TaqMan™ Gene Expression Assay for human PLAU (Hs01547054_m1), MMP-2 (Hs01548727_m1), MMP-9 (Hs00957562_m1), Snail-1 (Hs00195591_m1), Snail-2 (Hs00161904_m1), N-cadherin (Hs00983056_m1) and Twist (Hs01675818_s1). Relative quantification was done by reference to 18S ribosomal RNA (18S rRNA) and analysed using the comparative critical threshold (Ct) method
The mRNA expression of MMPs was measured using qRT-PCR. This was tested three independent times; the results are shown in Tables 9, 10 and 11 for U251, U87 cells and O81024 cells respectively. Results are reported as percent of the control cells (no treatment). Both MMP-2 and uPA were decreased in U251 by SEQ ID NO.1.
Epithelial-mesenchymal transition (EMT) is the process by which epithelial cells acquire a migratory (metastatic) phenotype and so EMT is associated with cancer metastasis, cancer cell stemness, chemoresistance and immune resistance. Therefore, the determination of the mRNA expression of EMT markers is a valuable tool to evaluate invasion potential of cancer cells.
The ‘Snail’ superfamily is involved in cell differentiation and survival, two processes central in cancer research. Snail-1 has a pivotal role in the regulation of epithelial-mesenchymal transition (EMT) and Snail-1 expression is associated with poor prognosis in metastatic cancer, and tumours with elevated Snail-1 expression are harder to treat. […]
(In general: Quantitative PCR measures a nucleic acid by following its amplification.)

A further test has as its system U87 cells. Kind of test: BME cell invasion assay, U87. The note with it: 24 h. As for the experimental part:
(§1) To assess whether the ability of SEQ ID NO.1 to inhibit MMP-2 activity and, to a lesser extent, reduce the production of matrix proteinases and downregulate the expression of EMT markers, was of functional consequence in reducing the invasiveness of the GBM cells, the ability of the peptide was tested at the concentrations of 1, 10 and 100 μM (none of which are toxic to cells) to inhibit invasion of the GBM cells through a basement membrane. This assay, described in more detail below, is an in vitro surrogate for measurement of the in vivo invasion by tumour cells of their environment.
(§2) The cell invasion assay employs a simplified Boyden chamber-like design that consists of two chambers separated by a filter (an 8 μm polycarbonate (PC) membrane) coated with basement membrane or different extracellular matrix components. The cell suspension is placed in the top chamber and incubated in the presence of test media containing specific chemo-attractants in the bottom chamber. Cells migrate from the top chamber to the bottom of the filter by degrading the coating over the filter pores. Detection of cell invasion is quantified using Calcein AM. Cell dissociation/Calcein AM solution is placed in the bottom chamber to dissociate the migrating cells from the filter. Calcein AM is internalized by the cells, and intracellular-esterases cleave the aceto-methylester (AM) moiety. Free Calcein fluoresces brightly and is used to quantitate the number of cells that have invaded or migrated by comparison with a standard curve (In Vitro Technologies Pty Ltd, (https://lifescience.invitro.com.au/brands/r-and-d-systems/).
(§3) The filter was coated with PathClear® growth factor reduced BME. The selected peptides were applied to the cells in both upper and lower wells to make sure the concentration of peptides were the same and the chemoattractant was serum at a concentration of 2% (for adherent U87 & U251 cells) or growth factor mix required in the medium (for non- adherent, 081024 oncospheres).
(§4) Cell invasion was determined using CultureCoat® 96 Well Medium BME Cell Invasion assay. Briefly, the cells were pre-starved 24 h before harvest. Then seeding 25,000 per well of cell in the upper chamber with serum free medium together different concentration of peptide. The bottom chamber also added different concentration of peptides with 2% (V/V) serum for GBM adherent cells or growth factor mix for neurosphere cells as chemoattractant. After 24 h incubation, the invading cells were measured by Calcein AM and calculated based on standard curve.
(§5) The results are shown in Table 12, the results are expressed as % inhibition.

The subject of another test is U251 cells. Nature of the test: BME cell invasion assay, U251. The note with it: 24 h. As for the experimental part: as §1, §2, §3, §4, §5

Residues, ends and D or L forms follow the SMILES beside them.

For the molecule `CC(C)C[C@@H]1NC(=O)[C@H](C)NC(=O)[C@@H](NC(=O)[C@@H]2CCCN2C(=O)[C@@H](N)CC(C)C)CSSC(C)(C)CNC(=O)CC[C@@H](C(=O)N[C@@H](CCCNC(=N)N)C(N)=O)NC(=O)[C@H](CC(=O)O)NC(=O)[C@H](CC(N)=O)NC1=O` [SEQ ID NO: 1, Leu-Pro-c(SSA*-Ala-Leu-Asn-Asp-Glu)-Arg-NH2] (HELM PEPTIDE1{L.P.C.A.L.N.D.E.R.[am]}|CHEM1{[CC(C)(CN[*:2])S[*:1]]}$PEPTIDE1,CHEM1,3:R3-1:R1|PEPTIDE1,CHEM1,8:R3-1:R2$$$V2.0; N-terminus assumed), the “mRNA expression, Snail-2” value with Snail-2 mRNA (081024 cells, baseline expression level = 1) turned out to be 1.01; in the test with Snail-2 mRNA (U87 cells, baseline expression level = 1) it was 0.94; in the test with Snail-2 mRNA (U251 cells, relative to control (no treatment)) it was 0.75. Also, the “mRNA expression, Snail-2 (in words)” value with Snail-2 mRNA (cell line not specified) is reported as “non-statistical decrease in expression”. Besides, the “Invasion Inhibition Index (%)” value with U87 cells (1 μM, listed as SEQ ID NO. 1) is reported as 7.6%; in the test with U87 cells (1 μM, listed as SEQ ID NO.1), “lower inhibition index compared to Chlorotoxin”; in the test on U87 cells (10 μM) it was 15.5%; with U87 cells (100 μM), 24.3%; in the test on U251 cells (1 μM) it was 13.2%; with U251 cells (10 μM), 17.8%. Besides, the “Invasion Inhibition Index (%)” value in the test with U251 cells (100 μM) is 26.7%.
